Experimental data from patent US7361643B2, “Methods for inhibiting angiogenesis” (University of Puerto Rico, priority 2000, dated 2008).

Tests used:
Format in all cases: cell-based
[1] = tested on: bovine adrenal medullary microvascular endothelial cells; experiment: DNA laddering by agarose gel electrophoresis; conditions: DNA from cells treated with 1 μg/ml tunicamycin for 32 hours
[2] = tested on: bovine adrenal medullary microvascular endothelial cells; experiment: Cell viability by trypan blue exclusion; conditions: under tunicamycin exposure (0.5-5.0 μg/ml, 32 hours)
Procedure: For proliferation assay, cells were trypsinized and counted in a hemacytometer. Viability of cells was determined by trypan blue (0.4% (v/v)) exclusion. Statistical analysis was carried out by StatView II software (Macintosh). Quantitation of cellular differentiation was carried out by observing under a Nikon AlphaShot inverted microscope, and counting the number of capillary lumen-like structures in five randomly selected fields per sample.
Proliferation and Differentiation of Capillary Endothelial Cells: 2.0×10^4 cells were seeded per well in 24-well clusters in 1 ml complete EMEM containing 10% (v/v) serum and allowed to grow for 72 hours. Media were removed and the cells were washed twice with phosphate-buffer saline, pH 7.4 (PBS). […] Cells were routinely monitored by light microscopy. For proliferation assay, cells were trypsinized and counted in a hemacytometer. Viability of cells was determined by trypan blue (0.4% (v/v)) exclusion. […] Quantitation of cellular differentiation was carried out by observing under a Nikon AlphaShot inverted microscope, and counting the number of capillary lumen-like structures in five randomly selected fields per sample. The results were expressed as percent of its corresponding control after normalization of cell numbers. […] After FacSort calibration, 3000 events were counted per sample. […]

[3] = tested on: bovine adrenal medullary microvascular endothelial cells; experiment: Cell cycle and apoptosis by flow cytometry (propidium iodide)
Procedure: Regarding flow cytometry, assessment of the cell cycle was determined by propidium iodide staining of fixed cell nuclei followed by flow cytometry in a FacSort (Beckton Dickinson) according to the method of Krishan (1975) as modified by Vindelov (1977), as discussed in KRISHAN, “Rapid Flow Cytofluorometric Analysis of Mammalian Cell Cycle by Propidium Iodide Staining”, J. Cell Biol., 66:188-193 (1975); and VINDELOV, “Flow Cytometric Analysis of Nuclear DNA in Cells from Solid Tumors and Cell Suspensions”, Virchows Arch (B), 24:227-231(1977), the disclosures of which are herein incorporated by reference in their entireties. Briefly, cells were trypsinized, and pelleted by centrifugation at 900 rpm in a bench top centrifuge (Sorvall T6000B). After washing twice with PBS the cell pellet was resuspended in propidium iodide-buffer (PI-buffer; 10 mM Tris-HCl, pH 8.0 containing 10 mM NaCl, 0.7 μM PI, 700 units/liter RNase, and 0.1% (v/v) NP-40), kept in ice for 30 minutes and then fixed with 2% (v/v) paraformaldehyde. After FacSort calibration, 3000 events were counted per sample. Acquisition and analysis of data were carried out by using Cell Quest flow cytometry software (Macintosh-based). Gates: M1=G0/G1, M2=S, M3=G2+M, M4=apoptosis.
Proliferation and Differentiation of Capillary Endothelial Cells: 2.0×10^4 cells were seeded per well in 24-well clusters in 1 ml complete EMEM containing 10% (v/v) serum and allowed to grow for 72 hours. Media were removed and the cells were washed twice with phosphate-buffer saline, pH 7.4 (PBS). Cells were synchronized by incubating for 48 hours in 2 mM hydroxyurea in serum-free EMEM with glutamine (2 mM) and one-third of penicillin-streptomycin used in a regular culture condition, followed by incubating 24 hours in serum-free EMEM, as discussed in CAO et al., “Modified Method of Mammalian Cell Synchronization Improves Yield and Degree of Synchronization”, Exp. Cell Res., 193:405-410 (1991), the disclosure of which is herein incorporated by reference in its entirety. Cells were routinely monitored by light microscopy. For proliferation assay, cells were trypsinized and counted in a hemacytometer. Viability of cells was determined by trypan blue (0.4% (v/v)) exclusion. Statistical analysis was carried out by StatView II software (Macintosh). Quantitation of cellular differentiation was carried out by observing under a Nikon AlphaShot inverted microscope, and counting the number of capillary lumen-like structures in five randomly selected fields per sample. The results were expressed as percent of its corresponding control after normalization of cell numbers. Analysis of Cell Cycle by Flow Cytometry: Assessment of the cell cycle was determined by propidium iodide staining of fixed cell nuclei followed by flow cytometry in a FacSort (Beckton Dickinson) according to the method of Krishan (1975) as modified by Vindelov (1977), as discussed in KRISHAN, “Rapid Flow Cytometric Analysis of Mammalian Cell Cycle by Propidium Iodide Staining”, J. Cell Biol. 66:188-195 (1975); and VINDELOV, “Flow Cytometric Analysis of Nuclear DNA in Cells from Solid Tumors and Cell Suspensions”, Virchows Arch (B), 24:227-231 (1977), the disclosures of which are herein incorporated by reference in their entireties. Briefly, cells were trypsinized, and pelleted by centrifugation at 900 rpm in a bench top centrifuge (Sorvall T6000B). After washing twice with PBS the cell pellet was resuspended in propidium iodide-buffer (PI-buffer; 10 mM Tris-HCl, pH 8.0 containing 10 mM NaCl, 0.7 μM PI, 700 units/liter RNase, and 0.1% (v/v) NP-40), kept in ice for 30 minutes and then fixed with 2% (v/v) paraformaldehyde. After FacSort calibration, 3000 events were counted per sample. Acquisition and analysis of data were carried out by using Cell Quest flow cytometry software (Macintosh-based). Gates: M1 G0/G1, M2=S, M3=G2+M, M4=apoptosis.

tunicamycin
DNA laddering [1]: appearance of laddering | total adherent cells viable [2]: more than 70% | completion of the cell cycle ([3]; 1 μg/ml tunicamycin): never completed the cell cycle | cell population entered into apoptosis ([3]; 1 μg/ml tunicamycin, 32 hours exposure, synchronized cells, EMEM 2% (v/v) FBS): ~70% | apoptosis by flow cytometric analysis (in words) ([3]; in the presence of tunicamycin): underwent apoptosis
